Measured values as given in US20160256560A1, “Environmentally Sensitive Compositions” (priority 2010, published 2016).
Values joined by “and” are separate entries in the source; they are usually repeats but may differ in a detail not shown here. Identical values can stand only once. Like-named read-outs stand apart in the source and are kept apart here. *1 amine or outer side, *2 acyl side, *3 side chain or, on linkers, in order; H or OH if unused. Where a SMILES comes first, the peptide text is derived from it. Bridges are numbered along the chain shown (N, C = ends). Where no end group is shown, it is not given here. [ ]: non-standard residue; d: D form. ξ: configuration not given here. X3 = CN(C)c1ccc2c(c1)Oc1cc(N(C)C)ccc1C2=C1C=CC(=NC(=S)NC[C@](C)(O)C[C@H](N[*:1])C(=O)[*:2])C=C1C(=O)O; X2 = CCCCCCCC/C=C\CCCCCCCC(=O)OC[C@](C)(O)C[C@H](N[*:1])C(=O)[*:2]; Trp(2-yl) = O=C([C@H](Cc1c([*:3])[nH]c2ccccc12)N[*:1])[*:2]; ξTrp(2-yl) = O=C(C(Cc1c([*:3])[nH]c2ccccc12)N[*:1])[*:2]; X1 = CC(O)(CO)CC(N[*:1])C(=O)[*:2]; cisHyp = O=C(O)[C@@H]1C[C@H](O)CN1; ξAsp(3ξ-OH) = NC(C(=O)O)C(O)C(=O)O; Hyp = O=C(O)[CH]1C[CH](O)CN1

Legend:
[1] = pH 5.5
HeLa cells [2] = format: cell-based, human; settings: for antiproliferative effect at either pH: pH 6
[3] = not given; remark: listed apart in the source
[4] = Stopped-flow fluorescence and CD kinetics of insertion/folding and exit/unfolding; format: physicochemical
tumor = assay: Animal studies of variants: tumor/organ fluorescence 4 and 24 h post-injection; settings: after 24 hours
actin filaments = settings: read-out: Kd, binding to actin filaments; cited from earlier work
[5] = system: luciferase pre-mRNA aberrant splice sites in HeLa cells; format: cell-based, human
HeLa tumors = settings: mouse, in vivo
HeLa-GFP cells = assay: Cellular uptake of nanogold (silver enhancement, image analysis); format: cell-based, human; settings: 1 h
HeLa cells [6] = system: HeLa cells
tumors = system: tumors; set-up: species or system nude mice; settings: mouse, in vivo

With `CC[C@H](C)[C@H](NC(=O)[C@@H]1CCCN1C(=O)[C@H](CC(N)=O)NC(=O)[C@H](CCC(N)=O)NC(=O)[C@H](CCC(=O)O)NC(=O)[C@H](C)NC(=O)[C@H](C)N)C(=O)N[C@@H](Cc1ccc(O)cc1)C(=O)N[C@@H](Cc1c[nH]c2ccccc12)C(=O)N[C@@H](C)C(=O)N[C@@H](CCCNC(=N)N)C(=O)N[C@@H](Cc1ccc(O)cc1)C(=O)N[C@@H](C)C(=O)N[C@@H](CC(=O)O)C(=O)N[C@@H](Cc1c[nH]c2ccccc12)C(=O)N[C@@H](CC(C)C)C(=O)N[C@@H](Cc1ccccc1)C(=O)N[C@H](C(=O)N[C@H](C(=O)N1CCC[C@H]1C(=O)N[C@@H](CC(C)C)C(=O)N[C@@H](CC(C)C)C(=O)N[C@@H](CC(C)C)C(=O)N[C@@H](CC(C)C)C(=O)N[C@@H](C)C(=O)N[C@@H](CC(C)C)C(=O)N[C@@H](C)C(=O)N[C@@H](CC(C)C)C(=O)N[C@@H](CC(C)C)C(=O)N[C@H](C(=O)N[C@@H](CC(=O)O)C(=O)N[C@@H](C)C(=O)N[C@@H](CC(=O)O)C(=O)N[C@@H](CCC(=O)O)C(=O)NCC(=O)N[C@H](C(=O)N[C@@H](CS)C(=O)NCC(=O)O)[C@@H](C)O)C(C)C)[C@@H](C)O)[C@@H](C)O` [D25A] the “pH 8 Solubility” value was “N”.

With “GGEQNPIYWARYDAWLFTTPLLLLDLALLVDADEGTCG [D14Up]” the “pH 8 Solubility” value was “Y”.

With “AAEQNPIYWARYAEWLFTTPLLLLELALLVDADEGTCG [D14/25E]” the “pH 8 Solubility” value was “N”.

With `CCCCCCCC/C=C\CCCCCCCC(=O)OC[C@](C)(O)C[C@@H]1NC(=O)[C@@H]2Cc3c([nH]c4ccccc34)SC[C@H](NC(=O)[C@@H]([C@H](C)O)NC(=O)[C@H](C)NC1=O)C(=O)N1C[C@@H](O)C[C@H]1C(=O)N[C@@H](C)C(=O)N2` [phalloidin-oleate] (cyclo(A[dT]C[cisHyp]A[Trp(2-yl)][X2]); thioether 3-6) the “Log P” value [1] was “+1.7”, the “inhibition of Hela cell proliferation rate” value (“inhibition” for short) (HeLa cells [2]; 1 µM) was 60% and the “inhibition” value (HeLa cells [2]; 2 µM) was 70%. The “inhibition” value (HeLa cells [2]; 4 µM) was 95%.

With Phallacidin-(CH2)n—SH, n=6 [phallC6SH] the “antiproliferative effect at either pH” value (HeLa cells [2]) was “does not demonstrate an antiproliferative effect at either pH”.

With “Phallacidin-(CH2)n—SH, n=10 [phallC10SH]” the “Log P (octanol-water partition coefficient)” value [1] was “+1.28”.

For “DDDEDNPIYWARYAHWLFTTPLLLLDGALLVDADECT [D3b]”, the “pH 8 Solubility” value was “Y”.

With “GGEQNPIYWARYADWLFTTPLLLDLLALLVDADEGTCG [D25Up]” the “pH 8 Solubility” value was “N”.

For “Ac-AAEQNPIYWARYADWLFTTPLLLLDLALLVDADEGTKCG [pHLIP-KC]”, the pKa (physchem) was 6.16 and the “pH 8 Solubility” value was “Y”.

With “AAEQNPIYWARYADWLFTTALLLLDLALLVDADEGT [P20A]” the “Findings: solubility / aggregation” value ([3]; pH 8) was “Aggregates”.

With “GGEQNPIYWARYADWLFTTPLLLLDLALLVDADEGTCG [WT-Cys3]” the “pH 8 Solubility” value was “Y”.

In the case of “GGEQNPIYWARYADWLFTTPLLLLDLALLVDADEGT [WT-1]”, the pKa (physchem) is reported as 6.

With “AEDQNDPI YWARYADWLFTTPLLLLELALLV EC--G-T-COOH [pHLIP-2E]” the “λmax, maximum position of fluorescence spectrum” value [3] was 339.2 nm, the “λmax, maximum position of fluorescence spectrum” value ([3]; pH 8) was 351.2 nm and 341.3 nm and the “A, frequency factor, first transition” value ([4]; pH 8) was 1.2 × 10^5. For the same compound, the “Ea, first transition” value ([4]; pH 8) was 6.0 kcal/mol, the “k1, rate constant” value ([4]; pH 8) was 0.20/5.00 s^−1 and 0.28/3.57 s^−1 and 0.34/2.94 s^−1 and 0.39/2.56 s^−1 and the “t1, characteristic time” value ([4]; pH 8) was 0.20/5.00 s and 0.28/3.57 s and 0.34/2.94 s and 0.39/2.56 s.

With phallacidin-(CH2)10NH2 [phallC10] the “Log P (octanol-water partition coefficient)” value [1] was “+1.28”.

With “ACEEQNPWARYLEWLFPTETLLLEL [Cys-Short-3E]” the retention in kidney (tumor) was “also retained in the kidney after 24 hours”.

Work on “AAEQNPIYWARYADWLFTTPLLLLDLALLVDADEGTCG [WT-Cys1]” yielded a pKa (physchem) of 6.14.

In the case of `C[C@@H]1NC(=O)[C@H](C[C@@](C)(O)CNC(=S)N=C2C=CC(=C3c4ccc(N(C)C)cc4Oc4cc(N(C)C)ccc43)C(C(=O)O)=C2)NC(=O)[C@@H]2Cc3c([nH]c4ccccc34)SC[C@H](NC(=O)[C@@H]([C@H](C)O)NC1=O)C(=O)N1C[C@@H](O)C[C@H]1C(=O)N[C@@H](C)C(=O)N2` [phalloidin-TRITC] (cyclo(A[dT]C[cisHyp]A[Trp(2-yl)][X3]); thioether 3-6), the Kd (actin filaments) is given as 40 nM.

With “GGEQNPIYWAQDYAWLFTTPLLLLDLALLVDADEGTCG [R11Q; D14UpUp]” the “pH 8 Solubility” value was “Y”.

For Phallacidin-(CH2)n—SH, n=4 [phallC4SH], the “Log P (octanol-water partition coefficient)” value [1] was −0.74.

For “ACEQNPIYWARYANWLFTTPLLLLNLALLVDADEGTG [N-pHLIP]”, the “pH 8 Solubility” value was “Y”.

In the case of “DDDEDNPIYWARYAHWLFTTPLLLLHGALLVNANECT [D0 or H2N2]”, the “pH 8 Solubility” value is reported as “Y”.

For “DDDEDNPIYWARYAHWLFTTPLLLLHGALLVNANECT [D0]”, the “pH 8 Solubility” value was “Y”.

For “GGEQNPIYWARYADWLFTTPLLLLDLALLVNANQGT [NNQ]”, the “pH 8 Solubility” value was “Y”.

For “DDDEDNPIYWARYADWLFTTPLLLLHGALLVDADECT [2H3 or D3a]”, the “pH 8 Solubility” value was “Y”.

With “GGEQNPIYWAQYDAWLFTTPLLLLDLALLVDADEGTCG [R11Q; D14Up]” the “pH 8 Solubility” value was “Y”.

With “DDDEDNPIYWARYAHWLFTTPLLLLHGALLVNADECT [D1]” the “pH 8 Solubility” value was “Y”.

With “pHLIP-S—S-CCTCTTACCTCAGTTACA (all peptide nucleic acid (PNA); pHLIP peptide disulfide-linked to the PNA, end not given here) [pHLIP-PNA construct]” the “luciferase activity localized to tumor sites” value [5] was “significantly higher luciferase activity” and the “uptake by cells in vivo compared to other constructs” value [5] was “Significantly greater amounts”.

For “AEDQNPYWARYADWLFTTPLLLLDLALLVDCG [Fast1-Cys]”, the pKa (physchem) was 6.1.

Work on AEQNPIYWARYADWLFTTPL [Short-Cys] yielded a pKa (physchem) of 4.4.

For ACDDQNPWRAYLDLLFPTDTLLLDLLW [Var3-3D], the retention in kidney (tumor) was “also retained in the kidney after 24 hours”.

For `CC1NC(=O)C2CC(O)CN2C(=O)C2CSc3[nH]c4ccccc4c3CC(NC1=O)C(=O)NC(CC(C)(O)CO)C(=O)NC(C(C)C)C(=O)NC(C(O)C(=O)O)C(=O)N2` (stereo not drawn) [phallacidin, reference compound] (cyclo([ξAsp(3ξ-OH)]C[Hyp]A[ξTrp(2-yl)][X1]V); thioether 2-5; configuration not given here), the “Log P (octanol-water partition coefficient)” value [1] was −1.6 and the “antiproliferative effect at either pH” value (HeLa cells [2]) was “does not demonstrate an antiproliferative effect at either pH”.

For “gold-pHLIP: 1.4 nm monomaleimido Nanogold conjugated to N-terminal Cys of pHLIP (ACEQNPIYWARYADWLFTTPLLLLDLALLVDADET) (AC(1.4 nm monomaleimido Nanogold)EQNPIYWARYADWLFTTPLLLLDLALLVDADET)”, the tumor/muscle ratio (HeLa tumors) was 5.6, the “gold in tumor versus gold nanoparticles alone (times)” value (HeLa tumors; iv) was 6 and the “cellular uptake at pH6.5 versus pH7.4 (times higher)” value (HeLa-GFP cells; 2 μM) was 1.6. For the same compound, the “uptake of gold versus unmodified gold nanoparticles (times)” value (HeLa-GFP cells; pH6.5, 2 μM) was 6.4 and the “uptake of gold versus unmodified gold nanoparticles (times)” value (HeLa-GFP cells; pH7.4, 2 μM) was 3.

With “AEQNPI YFARYADELFTTPLLLLDLALLW DADET-COOH [pHLIP-W3]” the “characteristic time, first component, exit” value ([4]; pH 3.6) was 0.06 s (14.9 s^−1), the “characteristic time, second component, exit” value ([4]; pH 3.6) was 0.35 s (2.88 s^−1) and the “rate constant, first component, exit” value ([4]; pH 3.6) was 0.06 s (14.9 s^−1). For the same compound, the “rate constant, second component, exit” value ([4]; pH 3.6) was 0.35 s (2.88 s^−1).

In the case of “DDDEDNPIYWARYAHWLFTTPLLLLHGALLVDADECT [2H2 or D2]”, the “pH 8 Solubility” value is reported as “Y”.

With aminophalloidin [reference compound] the “inhibitory effect on HeLa proliferation” value (HeLa cells [6]) was “no inhibitory effect” and the “inhibitory effect on M4A4 proliferation” value (M4A4 cells) was “no inhibitory effect”.

In the case of “ACEQNPIYWARYAKWLFTTPLLLLKLALLVDADEGTG [K-pHLIP]”, the “pH 8 Solubility” value is reported as “Y/N”.

For “Gadolinium-tetraazacyclododecanetetraacetic acid [Gd-DOTA control]”, the “% T1 Change (3 hrs)” value (tumors) was 5.27% and −3.05%, the “% T1 Change (24 hrs)” value (tumors) was 10.7% and 5.02% and the “T1 3 hrs” value (tumors) was 920.4 ms and 879.2 ms. The “T1 24 hrs” value (tumors) was 967.6 ms and 952.4 ms.

For “pHLIP-S—S—(CH2)6-phallacidin [pHLIP-C6phall]”, the cell death (HeLa cells [2]) was “about 60%” and the “antiproliferative effect at neutral pH” value (HeLa cells [2]; pH 7.4) was “no effect is observed”.

In the case of `CC[C@H](C)[C@H](NC(=O)[C@@H]1CCCN1C(=O)[C@H](CC(N)=O)NC(=O)[C@H](CCC(N)=O)NC(=O)[C@H](CCC(=O)O)NC(=O)[C@H](C)NC(=O)[C@H](C)N)C(=O)N[C@@H](Cc1ccc(O)cc1)C(=O)N[C@@H](Cc1c[nH]c2ccccc12)C(=O)N[C@@H](C)C(=O)N[C@@H](CCCNC(=N)N)C(=O)N[C@@H](Cc1ccc(O)cc1)C(=O)N[C@@H](C)C(=O)N[C@@H](CCC(=O)O)C(=O)N[C@@H](Cc1c[nH]c2ccccc12)C(=O)N[C@@H](CC(C)C)C(=O)N[C@@H](Cc1ccccc1)C(=O)N[C@H](C(=O)N[C@H](C(=O)N1CCC[C@H]1C(=O)N[C@@H](CC(C)C)C(=O)N[C@@H](CC(C)C)C(=O)N[C@@H](CC(C)C)C(=O)N[C@@H](CC(C)C)C(=O)N[C@@H](CC(=O)O)C(=O)N[C@@H](CC(C)C)C(=O)N[C@@H](C)C(=O)N[C@@H](CC(C)C)C(=O)N[C@@H](CC(C)C)C(=O)N[C@H](C(=O)N[C@@H](CC(=O)O)C(=O)N[C@@H](C)C(=O)N[C@@H](CC(=O)O)C(=O)N[C@@H](CCC(=O)O)C(=O)NCC(=O)N[C@H](C(=O)N[C@@H](CS)C(=O)NCC(=O)O)[C@@H](C)O)C(C)C)[C@@H](C)O)[C@@H](C)O` [D14E], the “pH 8 Solubility” value is reported as “Y”.

With “GGEQNPIYWARYADWLFTTPLLLLLDALLVDADEGTCG [D25Down]” the “pH 8 Solubility” value was “N”.
